Patent US20110263521A1, “PHARMACEUTICAL OR COSMETIC PREPARATIONS FOR TOPICAL AND/OR PARENTERAL APPLICATION, PREPARATION METHODS THEREOF AND USE OF SAME” (priority 2007, published 2011)

Tests used:
[1] = biological target: T1, hyaluronidase of bovine origin (Bos taurus, UniProt Q2YDK3); assay: Inhibitory effect of glycyrrhizin on hyaluronidase activity (turbidimetry of nonhydrolysed hyaluronic acid); assay type: biochemical; details: without preincubation with the enzyme; read-out: concentration of GLZ which gives 50% inhibition (IC50) of the hyaluronidase activity
T1 sequence (Q2YDK3 36-553): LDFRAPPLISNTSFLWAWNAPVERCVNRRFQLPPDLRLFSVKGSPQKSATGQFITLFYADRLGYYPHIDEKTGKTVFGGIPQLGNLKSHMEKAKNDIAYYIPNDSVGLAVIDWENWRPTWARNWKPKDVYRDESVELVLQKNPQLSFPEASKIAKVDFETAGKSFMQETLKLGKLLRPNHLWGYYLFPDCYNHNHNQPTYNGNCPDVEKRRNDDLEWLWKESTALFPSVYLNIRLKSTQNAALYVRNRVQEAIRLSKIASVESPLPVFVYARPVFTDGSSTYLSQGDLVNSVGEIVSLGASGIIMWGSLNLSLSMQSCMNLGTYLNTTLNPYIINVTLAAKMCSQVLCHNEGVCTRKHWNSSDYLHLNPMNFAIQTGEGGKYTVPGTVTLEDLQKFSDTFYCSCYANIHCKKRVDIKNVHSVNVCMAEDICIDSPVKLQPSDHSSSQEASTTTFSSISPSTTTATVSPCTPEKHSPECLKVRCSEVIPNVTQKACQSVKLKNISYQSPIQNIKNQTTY
Method: Determination of the IC50 of GLZ, with or without Preincubation at 37° C.:
GLZ, at various concentrations, is or is not preincubated for 20 minutes at 37° C. in the presence of the enzyme. The enzyme reaction is triggered by adding the hyaluronic acid solution (time T0). After incubation for 20 minutes, the nonhydrolysed hyaluronic acid is precipitated by adding acidic bovine albumin solution.
In order to verify that the preincubation step has no effect on the stability of the hyaluronidase, an aliquot of a solution of the enzyme is placed at 37° C. for 20 minutes. Another aliquot is conserved in an ice bath for 19 minutes, and is then incubated at 37° C. for 1 minute. A solution of hyaluronic acid is then added to each aliquot (TO). After incubation for 15, 30 or 45 minutes, the nonhydrolysed hyaluronic acid is precipitated by addition of acidic bovine albumin solution.
After the precipitation step, the turbidimetry of the solutions is determined on a spectrophotometer at a wavelength of 600 nm. The optical density (OD) of these solutions is subtracted from the OD of a control solution of hyaluronic acid (of the same concentration) not hydrolysed by the enzyme. This difference in OD, which is inversely proportional to the concentration of hyaluronic acid, is used to measure the activity of the hyaluronidase.

[2] = humans; cited from earlier work

## CC1(C)[C@@H](O[C@H]2O[C@H](C(=O)O)[C@@H](O)[C@H](O)[C@H]2O[C@@H]2O[C@H](C(=O)O)[C@@H](O)[C@H](O)[C@H]2O)CC[C@]2(C)[C@H]3C(=O)C=C4[C@@H]5C[C@@](C)(C(=O)O)CC[C@]5(C)CC[C@@]4(C)[C@]3(C)CC[C@@H]12 [GLZ, Glycyrrhizin]
[1]
  IC50: 400 µM

## hyaluronic acid
[2]
  excretion in the urine: less than 1 % of total clearance
